# In ChEMBL document CHEMBL1132609, “Discovery of a novel class of selective non-peptide antagonists for the human neurokinin-3 receptor. 2. Identification of (S)-N-(1-phenylpropyl)-3-hydroxy-2-phenylquinoline-4-carboxamide (SB 223412)” (J Med Chem, 1999):
# Key:
# Neuromedin-K receptor = molecular target: T1, Neuromedin-K receptor (Homo sapiens, UniProt P29371); assay: Binding affinity towards cloned human Tachykinin receptor 3 (hNK-3) expressed in CHO cells using [125I][MePhe7]-NKB; assay type: cell-based
# T1 sequence (P29371 whole entry): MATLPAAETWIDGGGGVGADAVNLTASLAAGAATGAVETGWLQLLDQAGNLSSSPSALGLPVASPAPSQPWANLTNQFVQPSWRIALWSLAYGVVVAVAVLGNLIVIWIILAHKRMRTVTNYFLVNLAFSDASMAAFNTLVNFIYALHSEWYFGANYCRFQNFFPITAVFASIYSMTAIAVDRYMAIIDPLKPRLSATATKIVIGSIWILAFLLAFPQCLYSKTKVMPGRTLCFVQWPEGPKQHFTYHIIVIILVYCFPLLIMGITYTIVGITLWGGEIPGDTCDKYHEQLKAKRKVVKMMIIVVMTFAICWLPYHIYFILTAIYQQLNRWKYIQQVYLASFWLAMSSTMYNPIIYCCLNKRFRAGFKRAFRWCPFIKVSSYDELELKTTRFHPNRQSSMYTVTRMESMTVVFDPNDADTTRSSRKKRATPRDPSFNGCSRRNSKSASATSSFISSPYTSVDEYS
# Substance-K receptor = molecular target: T2, Substance-K receptor (Homo sapiens, UniProt P21452); assay: Binding affinity towards cloned human Tachykinin receptor 2 (hNK-2) expressed in CHO cells using [125I]NKA
# T2 sequence (P21452 whole entry): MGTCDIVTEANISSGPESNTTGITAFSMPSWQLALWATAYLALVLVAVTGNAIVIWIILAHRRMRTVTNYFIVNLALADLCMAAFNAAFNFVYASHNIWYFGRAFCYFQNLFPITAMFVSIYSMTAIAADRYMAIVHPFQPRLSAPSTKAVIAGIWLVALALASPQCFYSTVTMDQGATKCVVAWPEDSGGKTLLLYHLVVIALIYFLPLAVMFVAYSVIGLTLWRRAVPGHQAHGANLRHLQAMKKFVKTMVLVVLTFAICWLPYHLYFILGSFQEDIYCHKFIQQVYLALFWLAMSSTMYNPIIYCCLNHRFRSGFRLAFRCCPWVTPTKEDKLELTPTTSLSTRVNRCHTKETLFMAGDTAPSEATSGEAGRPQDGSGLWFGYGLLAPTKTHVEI
# Substance-P receptor = Substance-P receptor (Homo sapiens, UniProt P25103); assay: Binding affinity towards cloned human Tachykinin receptor 1 (hNK-1) expressed in CHO cells using [3H]substance P
# [1] = molecular target: Neuromedin-K receptor (Oryctolagus cuniculus); assay: In vitro functional activity as antagonism of senktide-induced contractions in RISM (Rabbit Isolated Iris Sphincter Muscle) containing NK-3 receptor
# Substance-P receptor, sequence (P25103 whole entry): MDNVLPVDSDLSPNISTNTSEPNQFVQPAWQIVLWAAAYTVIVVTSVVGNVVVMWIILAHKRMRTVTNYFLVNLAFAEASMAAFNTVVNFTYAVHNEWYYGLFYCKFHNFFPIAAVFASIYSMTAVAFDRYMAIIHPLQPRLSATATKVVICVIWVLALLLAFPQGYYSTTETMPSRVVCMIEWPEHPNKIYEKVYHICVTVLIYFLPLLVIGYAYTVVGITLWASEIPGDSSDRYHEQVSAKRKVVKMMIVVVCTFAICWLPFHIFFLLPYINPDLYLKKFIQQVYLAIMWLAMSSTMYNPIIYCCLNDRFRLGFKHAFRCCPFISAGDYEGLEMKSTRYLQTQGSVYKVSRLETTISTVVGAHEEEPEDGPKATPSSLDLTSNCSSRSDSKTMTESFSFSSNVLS
Ki (Neuromedin-K receptor) [nM],SMILES,other results
264,CC(NC(=O)c1cc(-c2ccccc2)nc2ccccc12)c1ccccc1 (stereo not drawn),–
47.2,CCCC(NC(=O)c1cc(-c2ccccc2)nc2ccccc12)c1ccccc1 (stereo not drawn),–
13.7,CCCc1c(-c2ccccc2)nc2ccccc2c1C(=O)NC(CC)c1ccccc1 (stereo not drawn),–
6.3,"CCC(NC(=O)c1c(OCC(N)=O)c(-c2ccccc2)nc2ccccc12)c1ccccc1 (single isomer, unassigned)",–
488,CN(C)C(=O)C(NC(=O)c1cc(-c2ccccc2)nc2ccccc12)c1ccccc1 (stereo not drawn),–
74.3,CC(C)C(NC(=O)c1cc(-c2ccccc2)nc2ccccc12)c1ccccc1 (stereo not drawn),–
30.3,CC[C@@H](NC(=O)c1c(F)c(-c2ccccc2)nc2ccccc12)c1ccccc1,–
1650,O=C(N[C@H](C(=O)O)c1ccccc1)c1cc(-c2ccccc2)nc2ccccc12,–
–,CC[C@@H](NC(=O)c1c(C)c(-c2ccccc2)nc2ccccc12)c1ccccc1,Ki (Substance-K receptor): 277 nM; Ki (Substance-P receptor): > 100000 nM
129,O=C(NC1(c2ccccc2)CCCC1)c1cc(-c2ccccc2)nc2ccccc12,–
45.3,CCC(NC(=O)c1c(-c2ccccc2)c(-c2ccccc2)nc2ccccc12)c1ccccc1 (stereo not drawn),–
3510,O=C(NC(Cc1ccccc1)c1ccccc1)c1cc(-c2ccccc2)nc2ccccc12 (stereo not drawn),–
454,O=C(NC(c1ccccc1)C(F)(F)F)c1cc(-c2ccccc2)nc2ccccc12 (stereo not drawn),–
1140,NC[C@@H](NC(=O)c1cc(-c2ccccc2)nc2ccccc12)c1ccccc1,–
–,CC[C@@H](NC(=O)c1c(N)c(-c2ccccc2)nc2ccccc12)c1ccccc1,Ki (Substance-K receptor): 111 nM; Ki (Substance-P receptor): > 100000 nM
–,CC[C@@H](NC(=O)c1c(OCC(=O)O)c(-c2ccccc2)nc2ccccc12)c1ccccc1,Ki (Substance-K receptor): 214 nM; Ki (Substance-P receptor): > 100000 nM
4870,CCCCCCCC(NC(=O)c1cc(-c2ccccc2)nc2ccccc12)c1ccccc1 (stereo not drawn),–
295,CC(C)(NC(=O)c1cc(-c2ccccc2)nc2ccccc12)c1ccccc1,–
27.4,CC(=O)C(NC(=O)c1cc(-c2ccccc2)nc2ccccc12)c1ccccc1 (stereo not drawn),–
207,O=C(NC(CO)c1ccccc1)c1cc(-c2ccccc2)nc2ccccc12 (stereo not drawn),–
15.2,CCCCc1c(-c2ccccc2)nc2ccccc2c1C(=O)NC(CC)c1ccccc1 (stereo not drawn),–
2,"CCOC(=O)COc1c(-c2ccccc2)nc2ccccc2c1C(=O)NC(CC)c1ccccc1 (single isomer, unassigned)",–
983,NC(=O)C(NC(=O)c1cc(-c2ccccc2)nc2ccccc12)c1ccccc1 (stereo not drawn),–
973,COC(=O)CC(NC(=O)c1cc(-c2ccccc2)nc2ccccc12)c1ccccc1 (stereo not drawn),–

Ki (Neuromedin-K receptor) [nM],SMILES,other results
15.9,"CCC(NC(=O)c1c(NC(C)=O)c(-c2ccccc2)nc2ccccc12)c1ccccc1 (single isomer, unassigned)",–
29.9,CC[C@@H](NC(=O)c1c(Cl)c(-c2ccccc2)nc2ccccc12)c1ccccc1,–
134,O=C(NC(c1ccccc1)c1ccccc1)c1cc(-c2ccccc2)nc2ccccc12,–
2.4,CC[C@@H](NC(=O)c1c(OCC(=O)N(C)C)c(-c2ccccc2)nc2ccccc12)c1ccccc1,–
2.2,CC[C@@H](NC(=O)c1c(CN(C)C)c(-c2ccccc2)nc2ccccc12)c1ccccc1,Ki (Substance-K receptor): 172 nM; Ki (Substance-P receptor): > 100000 nM
146,CCCCC(NC(=O)c1cc(-c2ccccc2)nc2ccccc12)c1ccccc1 (stereo not drawn),–
55.4,CCCCCCc1c(-c2ccccc2)nc2ccccc2c1C(=O)NC(CC)c1ccccc1 (stereo not drawn),–
1.8,"CCC(NC(=O)c1c(OC)c(-c2ccccc2)nc2ccccc12)c1ccccc1 (single isomer, unassigned) [listing 1 of 2 here]",Ki (Substance-K receptor): 329 nM; Ki (Substance-P receptor): > 100000 nM
–,CCc1c(-c2ccccc2)nc2ccccc2c1C(=O)N[C@H](CC)c1ccccc1,Ki (Substance-K receptor): 316 nM; Ki (Substance-P receptor): > 100000 nM
8.6,"CCC(NC(=O)c1c(OCCCN(C)C)c(-c2ccccc2)nc2ccccc12)c1ccccc1 (single isomer, unassigned)",–
5.7,"CCC(NC(=O)c1c(OCCN(C)C)c(-c2ccccc2)nc2ccccc12)c1ccccc1 (single isomer, unassigned)",–
426,CNC(=O)C(NC(=O)c1cc(-c2ccccc2)nc2ccccc12)c1ccccc1 (stereo not drawn),–
1070,CN(C)C[C@@H](NC(=O)c1cc(-c2ccccc2)nc2ccccc12)c1ccccc1,–
10.7,"CCC(NC(=O)c1c(NC(=O)CN(C)C)c(-c2ccccc2)nc2ccccc12)c1ccccc1 (single isomer, unassigned)",–
–,"CCC(NC(=O)c1c(OC)c(-c2ccccc2)nc2ccccc12)c1ccccc1 (single isomer, unassigned) [listing 2 of 2 here]",Kb [1]: 1.8 nM
37.2,"CCC(NC(=O)c1c(Br)c(-c2ccccc2)nc2ccccc12)c1ccccc1 (single isomer, unassigned)",–
1.5,CC[C@@H](NC(=O)c1c(OCCO)c(-c2ccccc2)nc2ccccc12)c1ccccc1,Ki (Substance-K receptor): 82 nM; Ki (Substance-P receptor): > 100000 nM
6.8,"CCC(NC(=O)c1c(OCCN2CCCC2)c(-c2ccccc2)nc2ccccc12)c1ccccc1 (single isomer, unassigned)",–
382,O=C(NC(CCO)c1ccccc1)c1cc(-c2ccccc2)nc2ccccc12 (stereo not drawn),–
4.7,"CCC(NC(=O)c1c(OCCN)c(-c2ccccc2)nc2ccccc12)c1ccccc1 (single isomer, unassigned)",–
314,COCC(NC(=O)c1cc(-c2ccccc2)nc2ccccc12)c1ccccc1 (stereo not drawn),–
–,CC[C@@H](NC(=O)c1cc(-c2ccccc2)nc2ccccc12)c1ccccc1,Ki (Substance-K receptor): 237 nM; Ki (Substance-P receptor): > 100000 nM
5.8,CCC(NC(=O)c1c(OC)c(-c2ccccc2)nc2ccccc12)c1ccccc1 (stereo not drawn),–
